Data from ChEMBL document CHEMBL5465560, “Selectivity Literature for EUbOPEN Chemogenomic Library” (2024).
Each block holds one compound with its values, some of them ahead of it.

What was measured:
[1] = target: T1, 3-phosphoinositide-dependent protein kinase 1 (Homo sapiens) (UniProt O15530); settings: at 10 µM
T1 sequence (whole entry): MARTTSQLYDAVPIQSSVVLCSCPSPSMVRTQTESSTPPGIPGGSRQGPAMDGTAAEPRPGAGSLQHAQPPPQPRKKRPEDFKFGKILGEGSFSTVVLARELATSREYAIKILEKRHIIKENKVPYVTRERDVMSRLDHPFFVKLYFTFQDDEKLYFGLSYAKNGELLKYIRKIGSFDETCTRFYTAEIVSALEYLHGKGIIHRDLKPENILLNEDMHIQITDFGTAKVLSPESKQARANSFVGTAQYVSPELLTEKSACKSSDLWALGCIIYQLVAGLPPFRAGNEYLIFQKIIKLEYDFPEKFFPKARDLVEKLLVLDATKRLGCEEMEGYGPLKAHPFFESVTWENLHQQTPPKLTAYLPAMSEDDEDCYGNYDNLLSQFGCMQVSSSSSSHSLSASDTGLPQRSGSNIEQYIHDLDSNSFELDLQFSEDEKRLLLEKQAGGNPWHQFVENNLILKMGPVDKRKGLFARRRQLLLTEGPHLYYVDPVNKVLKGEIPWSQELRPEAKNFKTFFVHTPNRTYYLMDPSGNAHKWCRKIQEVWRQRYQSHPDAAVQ

[2] = target: Angiopoietin-1 receptor (Homo sapiens) (UniProt Q02763); settings: at 10 µM
Angiopoietin-1 receptor (Homo sapiens), sequence (Q02763 whole entry): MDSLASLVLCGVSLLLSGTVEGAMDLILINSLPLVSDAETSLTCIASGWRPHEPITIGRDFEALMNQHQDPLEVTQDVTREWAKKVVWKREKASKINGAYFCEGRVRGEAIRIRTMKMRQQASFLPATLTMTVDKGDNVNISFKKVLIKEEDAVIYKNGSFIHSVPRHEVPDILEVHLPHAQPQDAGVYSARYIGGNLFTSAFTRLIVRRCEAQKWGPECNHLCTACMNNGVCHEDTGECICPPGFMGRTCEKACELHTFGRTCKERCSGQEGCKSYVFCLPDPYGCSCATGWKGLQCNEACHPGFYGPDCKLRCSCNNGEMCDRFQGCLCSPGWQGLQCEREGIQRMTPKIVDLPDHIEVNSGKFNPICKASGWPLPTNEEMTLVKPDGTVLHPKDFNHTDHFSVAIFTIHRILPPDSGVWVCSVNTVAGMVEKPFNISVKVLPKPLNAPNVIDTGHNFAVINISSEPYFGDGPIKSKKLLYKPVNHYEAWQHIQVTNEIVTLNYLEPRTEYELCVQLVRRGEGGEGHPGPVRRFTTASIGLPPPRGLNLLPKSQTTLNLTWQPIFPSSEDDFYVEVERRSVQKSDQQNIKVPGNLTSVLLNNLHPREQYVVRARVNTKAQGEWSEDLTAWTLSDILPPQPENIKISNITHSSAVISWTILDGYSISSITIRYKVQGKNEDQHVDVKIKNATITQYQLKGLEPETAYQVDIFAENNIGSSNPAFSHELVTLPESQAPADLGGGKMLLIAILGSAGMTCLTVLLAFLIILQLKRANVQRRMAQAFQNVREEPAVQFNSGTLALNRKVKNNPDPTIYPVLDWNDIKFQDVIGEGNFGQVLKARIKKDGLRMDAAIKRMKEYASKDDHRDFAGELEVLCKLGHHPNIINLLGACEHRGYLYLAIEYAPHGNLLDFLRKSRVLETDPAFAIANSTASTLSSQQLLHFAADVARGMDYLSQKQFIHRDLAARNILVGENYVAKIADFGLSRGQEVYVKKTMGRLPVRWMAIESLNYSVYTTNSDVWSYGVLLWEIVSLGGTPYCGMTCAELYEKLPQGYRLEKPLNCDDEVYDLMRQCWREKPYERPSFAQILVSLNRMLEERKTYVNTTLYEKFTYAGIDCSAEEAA

Ephrin type-A receptor 4 = Ephrin type-A receptor 4 (Homo sapiens, UniProt P54764); experiment: Selectivity interaction (Kinase panel (33PanQinase(R) Activity Assay)) EUB0000877a EPHA4
Ephrin type-A receptor 4, sequence (P54764 whole entry): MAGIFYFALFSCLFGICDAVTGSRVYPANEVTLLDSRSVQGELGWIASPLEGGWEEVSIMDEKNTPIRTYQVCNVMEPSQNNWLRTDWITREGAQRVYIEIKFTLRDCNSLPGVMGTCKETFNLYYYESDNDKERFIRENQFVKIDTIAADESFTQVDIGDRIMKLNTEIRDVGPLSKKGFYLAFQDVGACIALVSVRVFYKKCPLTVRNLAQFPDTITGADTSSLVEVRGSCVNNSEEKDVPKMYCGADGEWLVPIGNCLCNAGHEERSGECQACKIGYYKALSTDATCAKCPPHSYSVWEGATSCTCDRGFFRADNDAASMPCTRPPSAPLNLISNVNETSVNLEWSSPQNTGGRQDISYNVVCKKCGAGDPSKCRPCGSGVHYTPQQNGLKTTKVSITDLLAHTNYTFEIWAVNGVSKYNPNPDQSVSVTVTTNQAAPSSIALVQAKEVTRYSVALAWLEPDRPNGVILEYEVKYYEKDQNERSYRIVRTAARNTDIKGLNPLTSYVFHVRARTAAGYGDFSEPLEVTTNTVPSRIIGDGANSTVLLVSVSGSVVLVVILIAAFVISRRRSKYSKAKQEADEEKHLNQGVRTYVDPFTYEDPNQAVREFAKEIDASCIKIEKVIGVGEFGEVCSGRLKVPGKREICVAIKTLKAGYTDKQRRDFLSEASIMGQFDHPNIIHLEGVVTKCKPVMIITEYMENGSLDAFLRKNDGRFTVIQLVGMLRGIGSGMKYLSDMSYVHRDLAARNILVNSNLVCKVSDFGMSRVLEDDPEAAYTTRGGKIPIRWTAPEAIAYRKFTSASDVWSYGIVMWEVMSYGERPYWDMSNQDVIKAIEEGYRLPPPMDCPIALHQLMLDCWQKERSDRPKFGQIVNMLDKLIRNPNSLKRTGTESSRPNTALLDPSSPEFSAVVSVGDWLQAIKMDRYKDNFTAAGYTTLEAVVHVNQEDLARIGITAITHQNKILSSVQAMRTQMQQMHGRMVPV

[3] = target: T2, Dual specificity mitogen-activated protein kinase kinase 4 (Homo sapiens) (UniProt P45985); experiment: Selectivity interaction (KinomeScan (DiscoverX)) EUB0001079a MAP2K4; settings: at 1 µM
T2 sequence (whole entry): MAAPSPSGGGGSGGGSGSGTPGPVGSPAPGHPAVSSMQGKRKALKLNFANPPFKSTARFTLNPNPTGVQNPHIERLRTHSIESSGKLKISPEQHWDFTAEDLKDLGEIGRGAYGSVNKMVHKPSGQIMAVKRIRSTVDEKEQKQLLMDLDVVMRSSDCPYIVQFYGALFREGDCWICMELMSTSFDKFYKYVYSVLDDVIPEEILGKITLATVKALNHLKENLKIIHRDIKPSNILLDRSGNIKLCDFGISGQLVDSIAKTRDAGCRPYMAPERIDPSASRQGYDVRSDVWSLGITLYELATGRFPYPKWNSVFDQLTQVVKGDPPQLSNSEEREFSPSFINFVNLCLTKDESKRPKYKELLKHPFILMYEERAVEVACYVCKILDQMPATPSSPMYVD

[4] = target: T3, Serine/threonine-protein kinase Nek9 (Homo sapiens) (UniProt Q8TD19); experiment: Selectivity interaction (ProQinase) EUB0000171b NEK9
T3 sequence (whole entry): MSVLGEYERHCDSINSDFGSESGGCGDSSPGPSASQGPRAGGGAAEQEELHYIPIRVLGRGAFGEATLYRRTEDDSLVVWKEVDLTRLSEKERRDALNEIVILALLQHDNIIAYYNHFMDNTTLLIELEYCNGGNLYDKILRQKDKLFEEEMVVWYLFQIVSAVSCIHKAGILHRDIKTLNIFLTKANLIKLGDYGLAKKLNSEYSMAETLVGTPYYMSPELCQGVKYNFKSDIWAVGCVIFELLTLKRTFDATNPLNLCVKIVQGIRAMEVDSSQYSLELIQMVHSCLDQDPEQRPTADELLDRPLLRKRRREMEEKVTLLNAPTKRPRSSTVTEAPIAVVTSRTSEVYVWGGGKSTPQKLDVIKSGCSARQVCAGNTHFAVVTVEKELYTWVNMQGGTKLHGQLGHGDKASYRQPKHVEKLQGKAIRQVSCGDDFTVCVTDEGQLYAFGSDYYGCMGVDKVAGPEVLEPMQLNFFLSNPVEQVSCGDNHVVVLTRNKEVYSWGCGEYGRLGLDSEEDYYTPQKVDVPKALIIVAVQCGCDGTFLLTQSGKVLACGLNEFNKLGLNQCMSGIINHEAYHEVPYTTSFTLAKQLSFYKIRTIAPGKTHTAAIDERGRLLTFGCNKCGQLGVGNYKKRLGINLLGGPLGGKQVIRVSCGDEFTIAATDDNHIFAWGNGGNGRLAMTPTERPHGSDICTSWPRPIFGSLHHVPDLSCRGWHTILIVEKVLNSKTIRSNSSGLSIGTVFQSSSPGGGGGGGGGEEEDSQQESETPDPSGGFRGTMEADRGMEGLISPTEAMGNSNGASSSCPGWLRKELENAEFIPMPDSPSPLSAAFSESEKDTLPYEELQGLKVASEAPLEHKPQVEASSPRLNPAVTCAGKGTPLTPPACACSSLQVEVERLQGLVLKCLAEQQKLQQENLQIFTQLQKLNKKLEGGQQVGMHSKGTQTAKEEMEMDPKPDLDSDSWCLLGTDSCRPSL

[5] = target: Serine/threonine-protein kinase 33 (Homo sapiens) (UniProt Q9BYT3); experiment: Selectivity interaction (KinomeScan (DiscoverX)) EUB0000045b STK33
Serine/threonine-protein kinase 33 (Homo sapiens), sequence (Q9BYT3 whole entry, looked up): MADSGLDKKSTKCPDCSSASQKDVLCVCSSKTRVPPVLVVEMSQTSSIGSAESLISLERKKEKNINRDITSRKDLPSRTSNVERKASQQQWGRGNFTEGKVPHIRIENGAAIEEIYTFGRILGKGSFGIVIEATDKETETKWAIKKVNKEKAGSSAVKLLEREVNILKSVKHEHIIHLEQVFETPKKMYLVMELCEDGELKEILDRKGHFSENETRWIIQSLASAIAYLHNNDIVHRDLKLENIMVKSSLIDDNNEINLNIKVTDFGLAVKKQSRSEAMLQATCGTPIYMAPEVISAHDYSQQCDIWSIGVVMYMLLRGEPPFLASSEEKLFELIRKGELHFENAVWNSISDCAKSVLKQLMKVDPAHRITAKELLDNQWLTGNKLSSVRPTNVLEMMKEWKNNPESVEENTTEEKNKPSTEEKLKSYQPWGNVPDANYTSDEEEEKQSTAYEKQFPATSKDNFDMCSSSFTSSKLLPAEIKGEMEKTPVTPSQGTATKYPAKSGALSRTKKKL

[6] = target: T4, Dual specificity mitogen-activated protein kinase kinase 3 (Homo sapiens) (UniProt P46734); experiment: Selectivity interaction (ActivX KiNativ screen (ex vivo kinase selectivity in human PBMCs)) EUB0001619a MAP2K3; assay type: cell-based; settings: PBMC, at 1 µM
T4 sequence (whole entry): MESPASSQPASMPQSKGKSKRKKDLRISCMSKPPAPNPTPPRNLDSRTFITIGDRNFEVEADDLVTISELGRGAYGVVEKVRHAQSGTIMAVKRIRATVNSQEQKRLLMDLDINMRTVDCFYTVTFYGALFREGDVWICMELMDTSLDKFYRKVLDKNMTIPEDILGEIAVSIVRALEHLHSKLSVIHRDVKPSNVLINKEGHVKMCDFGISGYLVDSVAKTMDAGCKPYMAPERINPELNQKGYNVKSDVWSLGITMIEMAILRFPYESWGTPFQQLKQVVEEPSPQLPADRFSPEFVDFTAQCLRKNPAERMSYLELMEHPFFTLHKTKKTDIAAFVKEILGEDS

[7] = target: Protein kinase C beta type (Homo sapiens, UniProt P05771); experiment: Selectivity interaction (ActivX KiNativ screen (ex vivo kinase selectivity in human PBMCs)) EUB0001619a PRKCB; assay type: cell-based; settings: PBMC, at 1 µM
Protein kinase C beta type, sequence (P05771 2-671 limits assumed): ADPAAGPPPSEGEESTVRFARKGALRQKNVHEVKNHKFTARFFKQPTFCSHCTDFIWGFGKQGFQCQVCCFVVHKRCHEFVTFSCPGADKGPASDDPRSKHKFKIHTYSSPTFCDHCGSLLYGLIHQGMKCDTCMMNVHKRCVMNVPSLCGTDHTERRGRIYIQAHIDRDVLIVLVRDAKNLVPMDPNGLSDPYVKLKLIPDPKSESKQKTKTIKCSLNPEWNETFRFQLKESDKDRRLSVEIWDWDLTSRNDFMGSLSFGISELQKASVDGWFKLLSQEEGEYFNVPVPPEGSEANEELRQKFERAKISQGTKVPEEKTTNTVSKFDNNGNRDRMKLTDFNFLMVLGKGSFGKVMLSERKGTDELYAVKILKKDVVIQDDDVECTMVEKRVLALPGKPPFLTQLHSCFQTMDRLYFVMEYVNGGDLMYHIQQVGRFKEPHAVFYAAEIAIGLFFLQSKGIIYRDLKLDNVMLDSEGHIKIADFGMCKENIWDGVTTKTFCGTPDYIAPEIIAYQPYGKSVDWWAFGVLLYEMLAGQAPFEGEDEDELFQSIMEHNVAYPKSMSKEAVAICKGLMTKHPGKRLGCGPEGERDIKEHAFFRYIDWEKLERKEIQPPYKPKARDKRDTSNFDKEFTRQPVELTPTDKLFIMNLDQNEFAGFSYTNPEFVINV

[8] = target: Hepatocyte growth factor-like protein (Homo sapiens) (UniProt P26927); experiment: Selectivity interaction (KinomeScan (DiscoverX)) EUB0000607a MST1; settings: at 10 µM

SMILES: Cc1cc([C@@H](C)Nc2ccccc2C(=O)O)c2nc(N3CCOCC3)cc(=O)n2c1 [AZD-6482]
% of control [1]: 100% | % of control [2]: 100%

IC50 (Ephrin type-A receptor 4): > 10 µM
SMILES: CCC(=O)N1CC[C@H](Nc2ncnc3c2CN(c2cnc(OC)c(C(F)(F)F)c2)CC3)C1 [LENIOLISIB]

SMILES: Nc1cnc(N2CCc3cc(S(=O)(=O)Nc4c(F)cc(Cl)cc4F)cc(N4CCCC4=O)c32)nc1 [TP-020n]
% of control [3]: 100%

SMILES: C=CC(=O)Nc1cccc(C(=O)Nc2ccc(Nc3cc(-c4[nH]c(SC)nc4C)ccn3)cc2)c1
% of control ([4]; at 1 µM): 97% | % of control ([4]; at 5 µM): 73%

SMILES: C=CC(=O)Nc1cc(-n2c(=O)ccc3cnc4ccc(-c5ccc(NS(C)(=O)=O)cc5)cc4c32)ccc1C
% of control ([5]; at 1 µM): 100% | % of control ([5]; at 10 µM): 95%

SMILES: N#Cc1cccc(-c2c[nH]c3ncnc(N4CCOCC4)c23)c1
% of inhibition [6]: -5% | % of inhibition [7]: 57%

SMILES: CNC(=O)Nc1ccc(-c2nc(N3CC4CCC(C3)O4)c3cnn(C4CCC5(CC4)OCCO5)c3n2)cc1
% of control [8]: 100%
